12 compounds from ChEMBL document CHEMBL1201862, “PubChem BioAssay data set” (2004) can be followed below.

Molecules are shown by their SMILES.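 Test compounds were applied to cells in 96-well plates for 48 hours at 5 doses. GI50 marks 50% less growth.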 The source made the active and inactive calls. No stated cut-off is given here; in the data, active = GI50 up to about 1.1 µM and inactive = higher.

Test in all cases: NCI tumour cell line growth inhibition, 48 h
For assay [1], the system named is COLO 205.
Assay [2] has as its system DU-145.
For assay [3], the system named is EKVX.
The test system of assay [4] is HCT-15.
Assay [5] relates to HOP-92.
The test system of assay [6] is K562.
For assay [7], the system named is LOX IMVI.
The test system of assay [8] is MDA-MB-231.
The subject of assay [9] is MDA-MB-435.
Assay [10] concerns NCI-H226.
Assay [11] relates to OVCAR-4.
The test system of assay [12] is OVCAR-5.
The subject of assay [13] is SF-268.
For assay [14], the system named is SF-539.
Assay [15] concerns SK-MEL-28.
Assay [16] concerns SK-MEL-5.
The test system of assay [17] is SK-OV-3.
The subject of assay [18] is SR.
The subject of assay [19] is RPMI-8226.

On to `CCCCCCCCCCN(CCCCCCCCCC)C(=O)COc1c2cc(C(C)(C)C)cc1Cc1cc(C(C)(C)C)cc(c1OCC(=O)N(CCCCCCCCCC)CCCCCCCCCC)Cc1cc(C(C)(C)C)cc(c1OCC(=O)N(CCCCCCCCCC)CCCCCCCCCC)Cc1cc(C(C)(C)C)cc(c1OCC(=O)N(CCCCCCCCCC)CCCCCCCCCC)C2`, for which the GI50 in [1] is 15.8 µM (inactive); in assay [2], 17.8 µM (inactive); in assay [3], 12.1 µM (inactive); in assay [4], 8.77 µM; in [5], < 0.01 µM (active); in assay [6], 1.9 µM (inactive). In addition, the GI50 in assay [7] was 10.2 µM (inactive); in assay [8], 17.6 µM (inactive); in assay [9], 12.9 µM (inactive); in [10], 19.3 µM (inactive); in assay [11], 10.4 µM (inactive); in assay [12], 13.3 µM (inactive). For the same compound, the GI50 in assay [13] is 15.1 µM (inactive); in assay [14] it was 4.34 µM (inactive); in [15], 11.3 µM (inactive); in assay [16], 13.5 µM (inactive); in [17], 14.4 µM (inactive); in assay [18], 2.96 µM (inactive).

As to `Cc1nc(Cc2n[nH]c(C)n2)n[nH]1`, the GI50 in assay [1] was > 100 µM (inactive); in assay [2], > 100 µM (inactive); in assay [3], > 100 µM (inactive); in assay [4] it was more than 100 µM; in assay [5], > 100 µM (inactive); in assay [6] it was > 100 µM (inactive). The GI50 in assay [7], in [8], in assay [9], in assay [11], in [12] and in assay [19] was > 100 µM (inactive) throughout. Also, the GI50 in assay [13], in [14], in assay [16], in assay [17] and in assay [18] was > 100 µM (inactive) each time.

Take `C=CCCCCCCC#CCCCCCCCCCC[C@@H]1C(=O)O[C@H](C)[C@@H]1O.CCCCCCCCC#CCCCCCCCCCC[C@@H]1C(=O)O[C@H](C)[C@@H]1O`: the GI50 in assay [1] was 24.8 µM (inactive); in assay [3], 16.8 µM (inactive); in assay [4] it was 20.2 µM; in assay [5] it was 10.5 µM (inactive); in assay [6], 6.19 µM (inactive); in assay [7] it was 12.9 µM (inactive). The GI50 in assay [8] is 23.6 µM (inactive); in assay [10] it was 27.1 µM (inactive); in assay [11], 16.4 µM (inactive); in assay [12] it was 59.2 µM (inactive); in assay [19], 16.5 µM (inactive); in assay [13], 13.9 µM (inactive). In addition, the GI50 was 20.8 µM (inactive) in assay [14], 24 µM (inactive) in [15], 13.3 µM (inactive) in assay [16] and 36.6 µM (inactive) in [17].

For `CC1=CC=NN2C(=O)[C@H](C)C2C1` (some centres undefined), the GI50 in assay [1] is > 100 µM (inactive); in [3], > 100 µM (inactive); in assay [4], more than 100 µM; in assay [5] it was > 100 µM (inactive); in assay [6], > 100 µM (inactive); in [7], > 100 µM (inactive). In addition, the GI50 in [10], in assay [11], in [12], in [19], in [13] and in [14] was > 100 µM (inactive) throughout. Further, the GI50 in assay [15], in [16], in assay [17] and in [18] was > 100 µM (inactive) in each case.

Turning to `CNC(=O)OCc1nc(SSc2nc(COC(=O)NC)c(COC(=O)NC)n2C)n(C)c1COC(=O)NC`, the GI50 in [1] is > 100 µM (inactive); in [3] it was > 100 µM (inactive); in assay [4], more than 100 µM; in assay [5] it was > 100 µM (inactive); in assay [6] it was > 100 µM (inactive); in assay [7], > 100 µM (inactive). Besides, the GI50 in assay [10], in assay [11], in [12], in [19], in assay [13] and in assay [14] was > 100 µM (inactive) each time. In addition, the GI50 in assay [15], in assay [16], in assay [17] and in assay [18] was > 100 µM (inactive) in each case.

As for `FC(F)(Sc1ccccn1)c1nc2ccccc2o1`, the GI50 in [1] was > 100 µM (inactive); in assay [2], > 100 µM (inactive); in [4], 55.7 µM; in assay [5], 76.6 µM (inactive); in assay [6], 60.5 µM (inactive); in [8], > 100 µM (inactive). Moreover, the GI50 in assay [9], in assay [10], in [11], in [12], in assay [19] and in assay [13] was > 100 µM (inactive) in each case. For the same compound, the GI50 in assay [14], in [15], in [16], in assay [17] and in assay [18] was > 100 µM (inactive) throughout.

`N#COc1ccc(Oc2ccccc2)cc1`: the GI50 is 64 µM (inactive) in assay [1]; > 100 µM (inactive) in assay [3]; 57.7 µM in assay [4]; 43.8 µM (inactive) in assay [5]; 48.4 µM (inactive) in [6]; 23.1 µM (inactive) in assay [7]. In addition, the GI50 in assay [10] is > 100 µM (inactive); in assay [11] it was > 100 µM (inactive); in assay [12], > 100 µM (inactive); in assay [19], 30.4 µM (inactive); in [13], 75.2 µM (inactive); in assay [14], 26.8 µM (inactive). In addition, the GI50 in assay [15] is > 100 µM (inactive); in assay [16] it was 46.6 µM (inactive); in assay [17], > 100 µM (inactive); in assay [18], 24.3 µM (inactive).

Take `Nc1ncnc2sc(Nc3ccccc3)nc12`: the GI50 in assay [1] was > 100 µM (inactive); in assay [4], more than 100 µM; in assay [5], 77.1 µM (inactive); in assay [6] it was 22.6 µM (inactive); in assay [7], 99.3 µM (inactive); in [10], > 100 µM (inactive). The GI50 in [11] was 93.3 µM (inactive); in assay [12], > 100 µM (inactive); in assay [19], > 100 µM (inactive); in assay [13] it was > 100 µM (inactive); in assay [14], > 100 µM (inactive); in assay [15], > 100 µM (inactive). In addition, the figures for the GI50 in assay [17] and in [18] were 46.2 µM (inactive) and 38 µM (inactive), respectively.

Take `O=C(Nc1c(O)[nH]c(=S)[nH]c1=O)c1ccccn1`: the GI50 is > 100 µM (inactive) in assay [1]; more than 100 µM in assay [4]; 39.1 µM (inactive) in assay [5]; > 100 µM (inactive) in assay [6]; > 100 µM (inactive) in [7]; > 100 µM (inactive) in assay [10]. Moreover, the GI50 in assay [11], in assay [12], in [19], in assay [13], in assay [14] and in assay [15] was > 100 µM (inactive) each time. The GI50 in assay [16], in assay [17] and in assay [18] was > 100 µM (inactive) each time.

`CCC1CC2CN3CCc4c([nH]c5c(-c6c(OC)ccc7c8c([nH]c67)[C@]6(C(=O)OC)CC7CC(CC)C6N(CC8)C7)c(O)ccc45)[C@](C(=O)OC)(C2)C13` (some centres undefined): the GI50 is 11.4 µM (inactive) in assay [1]; 14.9 µM (inactive) in assay [2]; 17.1 µM (inactive) in assay [3]; 15.2 µM in [4]; 12.9 µM (inactive) in [5]; 6.19 µM (inactive) in assay [6]. In addition, the GI50 in assay [7] was 14.8 µM (inactive); in assay [8], 21.6 µM (inactive); in assay [9] it was 11.1 µM (inactive); in assay [10] it was 4.92 µM (inactive); in assay [12], 16.6 µM (inactive); in assay [13] it was 12.1 µM (inactive). Besides, the GI50 in [14] was 19.5 µM (inactive); in assay [15], 15.8 µM (inactive); in assay [16], 13.6 µM (inactive); in assay [17], 25.6 µM (inactive); in assay [18], 13.3 µM (inactive).

Consider `CCCCCCCCCCCC(=O)C1=C(O)CC(O)CC1=O` (centres undefined), for which the GI50 in [1] is > 100 µM (inactive); in [3] it was > 100 µM (inactive); in assay [5], > 100 µM (inactive); in assay [6], 42.2 µM (inactive); in [7], 54.6 µM (inactive); in assay [10] it was 68.7 µM (inactive). In addition, the GI50 in [11] was > 100 µM (inactive); in [12] it was 68.7 µM (inactive); in [19] it was 87.3 µM (inactive); in assay [13], > 100 µM (inactive); in [14], > 100 µM (inactive); in assay [15], > 100 µM (inactive). Besides, the GI50 in [16], in assay [17] and in [18] was > 100 µM (inactive) in each case.

In the case of `COc1ccc(CCN2C(=O)CC34C=CC(CC3C2=O)O4)cc1OC` (centres undefined), the GI50 in assay [1] is > 100 µM (inactive); in assay [2] it was > 100 µM (inactive); in [3] it was > 100 µM (inactive); in assay [4] it was more than 100 µM; in assay [5], 97.5 µM (inactive); in assay [6] it was > 100 µM (inactive). Moreover, the GI50 in assay [7], in [8], in assay [9], in assay [11], in assay [12] and in assay [19] was > 100 µM (inactive) in each case. For the same compound, the GI50 in [14], in [15], in [16], in assay [17] and in assay [18] was > 100 µM (inactive) in each case.
